ChEMBL document CHEMBL3621100, “Discovery of Novel Class I Histone Deacetylase Inhibitors with Promising in Vitro and in Vivo Antitumor Activities” (J Med Chem, 2015)

Experiments:
DU-145 [1] = experiment: Fold increase in DU145 over HLF selectivity (GI50 ratio) relative to FK228 after 72 hrs by CCK8 assay
[2] = target: T1, Protein deacetylase HDAC6 (Homo sapiens, UniProt Q9UBN7); experiment: Inhibition of recombinant human HDAC6 after 60 mins by fluorescence assay
T1 sequence (Q9UBN7 whole entry): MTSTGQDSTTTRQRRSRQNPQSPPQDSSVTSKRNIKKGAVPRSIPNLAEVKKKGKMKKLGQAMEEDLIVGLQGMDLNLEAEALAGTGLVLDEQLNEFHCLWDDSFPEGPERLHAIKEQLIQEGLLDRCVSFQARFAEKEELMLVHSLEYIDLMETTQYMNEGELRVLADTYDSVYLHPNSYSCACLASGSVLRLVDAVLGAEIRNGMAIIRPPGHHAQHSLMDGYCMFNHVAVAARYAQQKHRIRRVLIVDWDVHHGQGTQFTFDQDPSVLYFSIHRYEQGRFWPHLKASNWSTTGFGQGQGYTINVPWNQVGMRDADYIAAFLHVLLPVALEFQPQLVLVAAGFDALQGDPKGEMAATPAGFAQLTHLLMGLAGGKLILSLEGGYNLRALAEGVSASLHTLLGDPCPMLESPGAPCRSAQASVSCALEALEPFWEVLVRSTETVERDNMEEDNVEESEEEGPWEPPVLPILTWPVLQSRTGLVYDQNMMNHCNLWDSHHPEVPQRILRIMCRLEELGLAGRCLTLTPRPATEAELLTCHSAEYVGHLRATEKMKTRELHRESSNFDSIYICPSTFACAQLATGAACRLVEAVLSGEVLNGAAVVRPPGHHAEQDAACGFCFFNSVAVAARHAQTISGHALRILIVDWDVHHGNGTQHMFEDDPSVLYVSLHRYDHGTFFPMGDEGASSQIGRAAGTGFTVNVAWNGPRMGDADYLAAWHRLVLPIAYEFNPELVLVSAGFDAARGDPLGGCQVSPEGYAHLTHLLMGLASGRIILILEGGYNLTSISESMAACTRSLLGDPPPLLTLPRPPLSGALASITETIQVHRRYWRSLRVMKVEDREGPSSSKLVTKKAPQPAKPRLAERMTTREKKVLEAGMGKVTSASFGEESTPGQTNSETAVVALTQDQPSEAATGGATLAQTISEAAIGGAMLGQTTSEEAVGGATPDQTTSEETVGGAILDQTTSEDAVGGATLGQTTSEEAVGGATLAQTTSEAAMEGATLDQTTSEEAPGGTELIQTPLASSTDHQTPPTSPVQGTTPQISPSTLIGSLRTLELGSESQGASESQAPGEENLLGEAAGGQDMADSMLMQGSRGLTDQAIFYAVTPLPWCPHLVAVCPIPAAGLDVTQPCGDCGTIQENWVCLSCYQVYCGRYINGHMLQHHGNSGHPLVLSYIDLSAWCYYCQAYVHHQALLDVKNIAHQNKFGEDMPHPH

Histone deacetylase 4 = Histone deacetylase 4 (Homo sapiens, UniProt P56524); experiment: Inhibition of recombinant human HDAC4 after 60 mins by fluorescence assay
Chain of Histone deacetylase 4 (P56524 whole entry): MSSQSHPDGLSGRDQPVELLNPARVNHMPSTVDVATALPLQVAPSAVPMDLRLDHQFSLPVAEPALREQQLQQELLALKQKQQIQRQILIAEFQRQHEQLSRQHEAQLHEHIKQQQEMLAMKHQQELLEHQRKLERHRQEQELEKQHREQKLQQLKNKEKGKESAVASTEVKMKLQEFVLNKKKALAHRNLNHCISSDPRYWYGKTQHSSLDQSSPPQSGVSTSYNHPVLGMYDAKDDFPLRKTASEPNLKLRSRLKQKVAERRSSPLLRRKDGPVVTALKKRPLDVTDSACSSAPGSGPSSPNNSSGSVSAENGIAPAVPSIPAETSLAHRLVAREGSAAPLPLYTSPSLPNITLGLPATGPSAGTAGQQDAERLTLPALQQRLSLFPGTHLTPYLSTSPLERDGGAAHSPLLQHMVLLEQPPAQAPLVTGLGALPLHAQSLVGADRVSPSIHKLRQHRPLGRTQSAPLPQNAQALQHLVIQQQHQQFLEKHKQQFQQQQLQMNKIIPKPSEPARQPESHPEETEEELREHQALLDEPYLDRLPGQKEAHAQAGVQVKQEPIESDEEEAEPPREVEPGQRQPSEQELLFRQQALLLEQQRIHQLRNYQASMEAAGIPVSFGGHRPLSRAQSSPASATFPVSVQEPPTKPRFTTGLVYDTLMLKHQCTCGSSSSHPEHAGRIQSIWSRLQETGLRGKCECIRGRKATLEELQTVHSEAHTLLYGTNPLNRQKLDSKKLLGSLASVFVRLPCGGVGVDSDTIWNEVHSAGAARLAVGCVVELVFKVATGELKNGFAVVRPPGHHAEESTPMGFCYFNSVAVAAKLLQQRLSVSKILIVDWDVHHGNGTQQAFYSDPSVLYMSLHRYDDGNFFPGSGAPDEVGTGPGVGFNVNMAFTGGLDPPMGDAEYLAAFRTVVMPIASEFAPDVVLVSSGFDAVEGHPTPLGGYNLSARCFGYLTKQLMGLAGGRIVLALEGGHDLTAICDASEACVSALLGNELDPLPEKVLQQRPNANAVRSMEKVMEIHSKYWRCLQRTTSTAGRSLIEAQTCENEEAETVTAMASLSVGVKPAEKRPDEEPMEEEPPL

DU-145 [3] = experiment: Antitumor activity against human DU145 cells xenografted in BALB/c mouse assessed as delay in tumor growth at 20 mg/kg, iv administered for 5 times a week for after 4 weeks; format: functional
Mus musculus [4] = experiment: Toxicity in human DU145 cells xenografted BALB/c mouse assessed as change in body weight at 20 to 80 mg/kg, iv administered for 5 times a week for after 4 weeks; format: organism-based, DU-145; conditions: in vivo, 672 h
DU-145 [5] = experiment: Antitumor activity against human DU145 cells xenografted in BALB/c mouse assessed as tumor growth inhibition at 20 mg/kg, iv administered for 5 times a week for after 4 weeks; format: functional; conditions: DU-145, iv, 672 h, read-out: GI
DU-145 [6] = experiment: Antitumor activity against human DU145 cells xenografted in iv dosed BALB/c mouse assessed as delay in tumor growth after 4 weeks; format: functional, organism-based
Mus musculus [7] = experiment: Toxicity in human DU145 cells xenografted BALB/c mouse assessed as mortality at 20 to 80 mg/kg, iv administered for 5 times a week for after 4 weeks; format: organism-based, DU-145; conditions: in vivo, 672 h
[8] = Aqueous solubility of the compound; format: physicochemical; conditions: buffer
DU-145 [9] = experiment: Antitumor activity against human DU145 cells xenografted in BALB/c mouse assessed as delay in tumor growth at 40 mg/kg, iv administered for 5 times a week for after 4 weeks; format: functional
DU-145 [10] = experiment: Antitumor activity against human DU145 cells xenografted in BALB/c mouse assessed as delay in tumor growth at 80 mg/kg, iv administered for 5 times a week for after 4 weeks; format: functional
DU-145 [11] = experiment: Fold increase in DU145 over HLF selectivity (GI50 ratio) relative to largazole after 72 hrs by CCK8 assay

Row | SMILES | Ratio (DU-145 [1]) | IC50 [2] [µM] | IC50 (Histone deacetylase 4) [µM] | Activity (DU-145 [3]) [%] | Activity (Mus musculus [4]) | inhibition in vivo at 20 mg/kg (DU-145 [5]) [%] | Activity (DU-145 [6]) | Activity (Mus musculus [7]) | solubility [8] | Activity (DU-145 [9]) [%] | Activity (DU-145 [10]) [%] | Ratio (DU-145 [11])
1 | C/C=C1\NC(=O)c2csc(n2)[C@@H](C(C)C)NC(=O)C[C@@H](/C=C/CCSC(=O)CCCCCCC)OC(=O)[C@H](C(C)C)NC1=O | 8 | > 10 | > 10 | – | – | – | – | – | – | – | – | –
2 | C/C=C1\NC(=O)c2csc(n2)CNC(=O)C[C@@H](/C=C/CCSC(C)=O)OC(=O)[C@H](C(C)C)NC1=O | – | 4.63 | > 10 | 51.7 | Non-toxic | 51.7 | Dose-dependent effect | Non-toxic | soluble | 75.2 | 81.2 | –
3 | C/C=C1\NC(=O)c2csc(n2)[C@@H](C(C)C)NC(=O)C[C@@H](/C=C/CCS)OC(=O)[C@H](C(C)C)NC1=O | – | 0.459 | > 10 | – | – | – | – | – | – | – | – | –
4 | C/C=C1\NC(=O)c2csc(n2)CNC(=O)C[C@@H](/C=C/CCS)OC(=O)[C@H](C(C)C)NC1=O | – | 0.331 | > 10 | – | – | – | – | – | – | – | – | –
5 | C/C=C1\NC(=O)c2csc(n2)CNC(=O)C[C@@H](/C=C/CCSC(=O)CCCCCCC)OC(=O)[C@H](C(C)C)NC1=O | 22 | 6.95 | > 10 | – | – | – | – | – | – | – | – | 20
